Data set [1] relates to Botrytis cinerea. The experiment in a line: Botrytis on wounded apples (Examples 18 to 20). The data set is classed as in vivo. As for the experimental part:
Tested fruit: apples […] from organic origin/SKAL certified. SKAL is a semi-governmental Dutch organization that controls organic production in the Netherlands. Wounds of the apples were checked at day 3. Natamycin with different proteins and starch contents were tested at a natamycin concentration of 100 ppm. Used pathogen: Botrytis cinerea spore-suspension containing 2*10^6 spores/ml. Application: The fruit peel of the apple was damaged with a cork borer, ø 4 mm and depth 0.5 cm into the fruit, with 2 wounds per apple. 40 microliter of a freshly prepared spore suspension of B. cinerea was applied by pipette onto each wound. Subsequently, the spore-suspension was allowed to air-dry for 4 hours. Then, 50 microliter of a treatment as presented in the list above was applied by pipette to each wound. All fruits were kept at room temperature (20° C.). Wounds of the apples were checked after 3 days of incubation. The efficacy was calculated by measuring the surface area (square mm) of the rot on the apples compared to the untreated control (see Tables 31 and 32). Replicates: All treatments for the apple experiment were performed on six individual apples with two wounds each resulting in 12 wounds per treatment. This experiment was performed as described in Example 18. This experiment was performed as described in Example 19. Natamycin A and Natamycin E were used at different concentrations and data were recorded at different time points, as is indicated in Table 35.

Data set [2] has as its system Saccharomyces cerevisiae. The experiment in a line: Bioavailability: filter disc inhibition zone on yeast agar plates (Examples 15 and 16). The class given is cell-based. The following applies: 10 μl of 3 mM natamycin. As for the experimental part:
Saccharomyces cerevisiae (at least 10^5 cfu/ml) was distributed on Petri dishes with a diameter of 145 mm containing 30 ml Potato Dextrose Agar (PDA; Carl Roth; pH of about 6) using sterilized swabs. […] Following the application of a filter, Petri dishes were incubated for 16 h h in a refrigerator at 4° C. to allow diffusion of natamycin into the agar. After 16 h the filter discs were removed from the agar and the Petri dishes were incubated upside down in a stove at 30° C. […] After 24 h incubation in the stove the size of the inhibition zone was determined using a digital caliper gauge. The data are presented as square mm and are an average of six replicas. The effect of 3 mM natamycin on yeast growth in Petri dishes was determined as described herein above. Numbers represent surface of inhibition zones expressed in square mm. Same methods as described above in Example 15. The effect of 3 mM natamycin on yeast growth in Petri dishes was determined as described herein above, unless otherwise indicated.

Data set [3] can be described thus: BET surface area analysis. The class given is physicochemical. Also on record: BET analysis: dose or concentration left out as unconfirmed. The following applies: for BET: batches of Table 20; for BET analysis: milled to a particle size of 2 μm. As for the experimental part:
Surface area may be measured by any suitable methods or techniques known in the art. For example, with respect to the variations described above, the surface area is measured by BET (also known in the art as Brunauer, Emmett and Tellers analysis theory). Using BET analysis, the surface area of the natamycin composition may be determined by physical adsorption of nitrogen (N2) gas on the surface of the natamycin composition, which is a solid. The value of the BET analysis is expressed as m^2 per gram of solid material.
Brunauer, Emmett, and Tellers (BET) analysis theory was used to determine the surface area (expressed as m^2/g) for Natamycin Composition A and Control Natamycin. Each sample was milled to a particle size of […] prior to BET analysis.

Data set [4] can be described thus: Average particle size of natamycin batches (Example 14). The following applies: batches of Table 20. The class given is physicochemical. The source says:
Methods for determining the average size of particles in a composition are known to the skilled person. For example, Hukkanen and Braatz, 2003. Sensors and Actuators B 96: 451-459, discuss varies methods that can be used for determining the average particle size in a composition, including forward light scattering and ultrasonic extinction. A preferred method is sieve analysis or laser diffraction analysis, for example using a Analysette 22-MicroTec plus laser-particle-sizer (Fritsch, Idar-Oberstein, Germany).
Several batches of crude natamcyin, prepared as described herein above, and commercial batches of purified natamycin (95%) were obtained and analysed.

In data set [5] the test system is Saccharomyces cerevisiae. The experiment in a line: Bioavailability: filter disc inhibition zone, disc moved to a new plate after 24 h (Example 17). The data set is classed as cell-based. The following applies: 50 μl of 3 mM natamycin. As for the experimental part: Saccharomyces cerevisiae (at least 10^5 cfu/ml) was distributed on Petri dishes with a diameter of 90 mm containing 10 ml PDA agar (Carl Roth, pH about 6) using sterilized swabs. Filter paper discs (Whatman) with a diameter of 6 mm were loaded with 50 μl of a solution containing a concentration of 3 mM natamycin. The size of the inhibition zone is a result of the natamycin released from the sample disc. After 24 h of incubation in the stove the size of the inhibition zone was measured using a digital caliper gauge. After measuring, the filter discs were removed and replaced on a new Petri dish similar to the previous one (90 mm containing 10 ml PDA agar and Saccharomyces cerevisiae (at least 10^5 cfu/ml) distributed by swabs). 24 hours after the replacement of the filters, the inhibition zone was measured again. The data are presented as square mm and are an average of four replicas.

The nature of data set [6]: Saturation studies: dissolution in water with 5% polysorbate 80, HPLC peak areas. The class given is physicochemical. The following applies: water + 5% polysorbate 80, 22° C. As for the experimental part:
Saturation studies were performed on Natamycin Composition A and Control Natamycin, both at 25% (w/w %) suspension in water. […] To prepare the samples for solubility analysis, a plastic pipet was used to add 3 drops (0.25 mL) of thoroughly shaken formulation to 10 mL of the dissolution medium. […] Then, 0.05 mL of the mobile phase was added to 0.25 mL of the filtrated natamycin aliquot. The aliquots were then injected individually onto a high performance liquid chromatography (HPLC) column and the resulting peak areas were calculated. […] The column temperature was set to 25° C. and the natamycin was detected at a wavelength of 304 nm.

Data set [7] has as its system Fusarium graminearum. The class given is in vivo. The following applies: for Average Vigor: 0-10 scale.
Data set [8] is described as follows: Liquid phase concentration of natamycin in the suspensions (centrifugation, HPLC). The class given is physicochemical. The following applies: supernatant of suspension in water. As for the experimental part:
The supernatants were then collected and diluted 10-fold with an acetonitrile:water (3:7) solution. The concentration of natamycin in the liquid layer was then determined by injecting the samples individually onto an HPLC and comparing the UV-Vis absorption to that of a standard natamycin stock solution.

Like-named read-outs stand apart in the source and are kept apart here.

For the compound `C[C@@H]1C/C=C/C=C/C=C/C=C/[C@H](O[C@@H]2O[C@H](C)[C@@H](O)[C@H](N)[C@@H]2O)C[C@@H]2O[C@](O)(C[C@@H](O)C[C@H]3O[C@@H]3/C=C/C(=O)O1)C[C@H](O)[C@H]2C(=O)O` [Natamycin F, natamycin], the Efficacy in data set [1] (Table 33, 100 ppm natamycin, day 3) amounted to 60.2%. Besides, the Inhibition zone is recorded as 183 mm^2 in data set [2] (Table 21, 16 h 4° C. then 24 h 30° C.); 142 mm2 in data set [2] (Table 25); 100 mm2 in data set [2] (Table 29). For the same compound, the BET in data set [3] came out at 9.36 m^2/g. The “D0.5 (average particle size of the particles)” value in data set [4] is recorded as 15.3 μm.

`C[C@@H]1C/C=C/C=C/C=C/C=C/[C@H](O[C@@H]2O[C@H](C)[C@@H](O)[C@H](N)[C@@H]2O)C[C@@H]2O[C@](O)(C[C@@H](O)C[C@H]3O[C@@H]3/C=C/C(=O)O1)C[C@H](O)[C@H]2C(=O)O` [Natamycin E, natamycin]: the Efficacy in data set [1] (Table 32, 100 ppm natamycin, day 3) was found to be 54%; in data set [1] (Table 34, day 3), 75%; in data set [1] (Table 34, day 5), 58%; in data set [1] (Table 34, day 7), 53%; in data set [1] (Table 34, day 9), 42%; in data set [1] (Table 35, 100 ppm, day 3), 84%. Also, the Efficacy in data set [1] (Table 35, 100 ppm, day 5) was 41%; in data set [1] (Table 35, 100 ppm, day 7), 12%; in data set [1] (Table 35, 2000 ppm, day 3) it was 100%; in data set [1] (Table 35, 2000 ppm, day 5), 62%; in data set [1] (Table 35, 2000 ppm, day 7), 50%. Further, the Inhibition zone in data set [5] (24 h) was found to be 480 mm^2; in data set [5] (48 h (disc replaced on a new plate after 24 h)), 298 mm^2; in data set [2] (Table 24) it was 242 mm2; in data set [2] (Table 26), 188 mm2; in data set [2] (Table 27), 179 mm2; in data set [2] (Table 28), 110 mm2. Also, the “D0.5 (average particle size of the particles)” value in data set [4] stood at 14.4 μm.

In the case of `C[C@@H]1C/C=C/C=C/C=C/C=C/[C@H](O[C@@H]2O[C@H](C)[C@@H](O)[C@H](N)[C@@H]2O)C[C@@H]2O[C@](O)(C[C@@H](O)C[C@H]3O[C@@H]3/C=C/C(=O)O1)C[C@H](O)[C@H]2C(=O)O` [Control Natamycin, comprising natamycin batch # 140206], the BET analysis in data set [3] turned out to be 7.7 m^2/g.

On to `C[C@@H]1C/C=C/C=C/C=C/C=C/[C@H](O[C@@H]2O[C@H](C)[C@@H](O)[C@H](N)[C@@H]2O)C[C@@H]2O[C@](O)(C[C@@H](O)C[C@H]3O[C@@H]3/C=C/C(=O)O1)C[C@H](O)[C@H]2C(=O)O` [Control Natamycin, comprising natamycin F], for which the BET analysis in data set [3] is recorded as 9.4 m^2/g.

With `C[C@@H]1C/C=C/C=C/C=C/C=C/[C@H](O[C@@H]2O[C@H](C)[C@@H](O)[C@H](N)[C@@H]2O)C[C@@H]2O[C@](O)(C[C@@H](O)C[C@H]3O[C@@H]3/C=C/C(=O)O1)C[C@H](O)[C@H]2C(=O)O` [Control Natamycin, natamycin], the HPLC peak area is reported as 3966 mAUs in data set [6] (20 s), 4077 mAUs in data set [6] (60 s) and 4005 mAUs in data set [6] (300 s). For the same compound, the “Number of plants at last count” value in data set [7] (2.5 g AI/100 kg) turned out to be 47; in data set [7] (5 g AI/100 kg) it was 45; in data set [7] (10 g AI/100 kg), 36; in data set [7] (20 g AI/100 kg) it was 45. Also, the Plant loss in data set [7] (2.5 g AI/100 kg) was determined as 52%; in data set [7] (5 g AI/100 kg), 52%; in data set [7] (10 g AI/100 kg), 62%; in data set [7] (20 g AI/100 kg), 52%. For the same compound, the “Average Vigor” value in data set [7] (2.5 g AI/100 kg) came to 7.9; in data set [7] (5 g AI/100 kg), 7.8; in data set [7] (10 g AI/100 kg) it was 7.5; in data set [7] (20 g AI/100 kg), 7.7. Besides, the “Natamycin in the liquid phase” value in data set [8] was 68 µg/mL. Further, in data set [3] (average of the trials of Table 4), the “average BET surface area” value stood at 8.5 m^2/g.

As for `C[C@@H]1C/C=C/C=C/C=C/C=C/[C@H](O[C@@H]2O[C@H](C)[C@@H](O)[C@H](N)[C@@H]2O)C[C@@H]2O[C@](O)(C[C@@H](O)C[C@H]3O[C@@H]3/C=C/C(=O)O1)C[C@H](O)[C@H]2C(=O)O` [Natamycin 140206, natamycin], in data set [2] (Table 22), the Inhibition zone is 167 mm^2. In addition, in data set [3], the BET turned out to be 7.73 m^2/g.

The record behind these values is patent publication US11317631B2, “Natamycin compositions and uses thereof” (Arec Crop Protection B.V., priority 2016, dated 2022).
